Assay results taken from patent US6486196B2, “Anticancer compounds: process for their preparation and pharmaceutical compositions containing them” (Dr. Reddy's Research Foundation, priority 2000, dated 2002).
Like-named read-outs stand apart in the source and are kept apart here.

Columns and labels:
[1] = tested on: HT29; assay: Sulforhodamine B growth inhibition, colon HT29; type: cell-based, human; conditions: Homo sapiens, HT-29, 48 h, SRB, read-out: GROWTH INHIBITION (GI 50)
Experimental: (§1) Each test compound was screened against a battery of cell lines representing eight different types of cancers. In a typical procedure, 1×10^4 cells were seeded into each well of 96 well plate in 100 μL volume of RPMI 1640 medium containing antibiotics and 10% FCS.
(§2) The plates were incubated at 37° C. in presence of CO2. After 24 h, test compounds were evaluated at five 10 fold dilutions ranging from 100 to 0.01 μM. To each test well 100 μL of test compound solution was added and medium with vehicle was added to control wells and the plates were further incubated. After 48 h of incubation, plates were terminated by Sulforhodamine B method.
(§3) The optical density which is proportional to protein mass, is then read by automated spectrophotometric plate reader at a wavelength of 515 nm.

[2] = tested on: H522; assay: Sulforhodamine B growth inhibition, lung H522; type: cell-based, human; conditions: SRB, read-out: GROWTH INHIBITION (GI 50)
Experimental: as §1, §2, §3

[3] = tested on: SW-620; assay: Sulforhodamine B growth inhibition, colon SW-620; type: cell-based, human; conditions: 48 h, SRB, read-out: GROWTH INHIBITION (GI 50)
Experimental: as §1, §2, §3

[4] = tested on: U251; assay: Sulforhodamine B growth inhibition, CNS U251; type: cell-based, human; conditions: SRB, read-out: GROWTH INHIBITION (GI 50)
Experimental: as §1, §2, §3

[5] = tested on: SKOV-3; assay: Sulforhodamine B growth inhibition, ovarian SKOV-3; type: cell-based, human; conditions: SRB, read-out: GROWTH INHIBITION (GI 50)
Experimental: as §1, §2, §3

[6] = tested on: UACC62; assay: Sulforhodamine B growth inhibition, melanoma UACC62; type: cell-based, human; conditions: Homo sapiens, UACC-62, 48 h, SRB, read-out: GROWTH INHIBITION (GI 50)
Experimental: as §1, §2, §3

[7] = tested on: PA1; assay: Sulforhodamine B growth inhibition, ovarian PA1; type: cell-based, human; conditions: Homo sapiens, PA-1, 48 h, SRB, read-out: GROWTH INHIBITION (GI 50)
Experimental: as §1, §2, §3

[8] = tested on: MCF-7/ADR; assay: Sulforhodamine B growth inhibition, breast MCF-7/ADR; type: cell-based, human; conditions: 48 h, SRB, read-out: GROWTH INHIBITION (GI 50)
Experimental: as §1, §2, §3

[9] = tested on: MCF7; assay: Sulforhodamine B growth inhibition, breast MCF7; type: cell-based, human; conditions: Homo sapiens, 48 h, SRB, read-out: GROWTH INHIBITION (GI 50)
Experimental: as §1, §2, §3

[10] = tested on: A498; assay: Sulforhodamine B growth inhibition, renal A498; type: cell-based, human; conditions: 48 h, SRB, read-out: GROWTH INHIBITION (GI 50)
Experimental: as §1, §2, §3

[11] = tested on: DU145; assay: Sulforhodamine B growth inhibition, prostate DU145; type: cell-based, human; conditions: SRB, read-out: GROWTH INHIBITION (GI 50)
Experimental: as §1, §2, §3

[12] = tested on: ACHN; assay: Sulforhodamine B growth inhibition, renal ACHN; type: cell-based; conditions: Homo sapiens, 48 h, SRB, read-out: GROWTH INHIBITION (GI 50)
Experimental: as §1, §2, §3

[13] = tested on: PC-3; assay: Sulforhodamine B growth inhibition, prostate PC-3; type: cell-based, human; conditions: Homo sapiens, 48 h, SRB, read-out: GROWTH INHIBITION (GI 50)
Experimental: as §1, §2, §3

[14] = tested on: M14; assay: Sulforhodamine B growth inhibition, melanoma M14; type: cell-based, human; conditions: 48 h, SRB, read-out: GROWTH INHIBITION (GI 50)
Experimental: as §1, §2, §3

Structure (SMILES): C=C1CCC2[C@](C)(COC(=O)CC)C(OC(=O)CC)CC[C@]2(C)[C@H]1C/C=C1/C(=O)OCC1OC(=O)/C=C/c1ccc(OC)c(OC)c1 (some centres unmarked) [Example 27, 14-(3,4-dimethoxy)cinnamoyl-3,19-dipropionyl andrographolide]
- melting point: 85.4 °C

Structure (SMILES): C=C1CCC2[C@]3(C)COC(C)(c4ccccc4)O[C@@H]3CC[C@]2(C)[C@H]1C/C=C1/C(=O)OC[C@H]1O (some centres unmarked) [Example 3, 3,19-(1-Phenylethylidene)andrographolide]
- GI50 [1]: 2 µM
- GI50 ([2]; Homo sapiens, NCI-H522, 48 h): 12 µM
- GI50 ([3]; Homo sapiens): 5 µM
- GI50 ([4]; Homo sapiens, U-251, 48 h): 2 µM
- GI50 ([5]; Homo sapiens, SK-OV-3, 48 h): 5 µM
- GI50 [6]: 3 µM
- GI50 [7]: 19 µM
- GI50 ([8]; Homo sapiens, NCI/ADR-RES): 2 µM
- melting point: 201 to 203 °C
- GI50 [9]: 12 µM
- GI50 ([10]; Homo sapiens): 3 µM

Structure (SMILES): C=C1CCC2[C@](C)(CO)[C@H](O)CC[C@]2(C)[C@H]1C/C=C1/C(=O)OC[C@H]1OC(=O)C(C)C (some centres unmarked) [Example 12, 14-Isopropanoyl andrographolide]
- melting point: 122.6 °C

Structure (SMILES): C=C1CCC2[C@](C)(CO)[C@H](O)CC[C@]2(C)[C@H]1C/C=C1/C(=O)OC[C@H]1OCc1ccccc1 (some centres unmarked) [Example 15, 14-Benzyl andrographolide]
- GI50 [1]: 3.5 µM
- GI50 ([2]; Homo sapiens, NCI-H522, 48 h): 12 µM
- GI50 ([11]; Homo sapiens, DU-145, 48 h): 4 µM
- GI50 ([3]; Homo sapiens): 3.5 µM
- GI50 ([4]; Homo sapiens, U-251, 48 h): 40 µM
- GI50 ([5]; Homo sapiens, SK-OV-3, 48 h): 3 µM
- GI50 [6]: 3.5 µM
- GI50 ([8]; Homo sapiens, NCI/ADR-RES): 20 µM
- GI50 [12]: 4 µM
- melting point: 141 °C
- GI50 [9]: 6 µM
- GI50 [13]: 2 µM

Structure (SMILES): C=C1CCC2[C@](C)(CO)[C@H](O)CC[C@]2(C)[C@H]1C/C=C1/C(=O)OC[C@H]1OC(=O)NC(C)C (some centres unmarked) [Example 10, 14-(N-isopropyl)carbamoyl andrographolide]
- melting point: 122 °C

Structure (SMILES): C=C1CC[C@@H]2[C@]3(C)COC(C)(C)O[C@@H]3CC[C@@]2(C)[C@@H]1C/C=C1/C(=O)OC[C@H]1O [Example 1, 3,19-isopropylidene andrographolide]
- GI50 [1]: 2 µM
- GI50 ([2]; Homo sapiens, NCI-H522, 48 h): 14 µM
- GI50 ([3]; Homo sapiens): 5 µM
- GI50 ([4]; Homo sapiens, U-251, 48 h): 4 µM
- GI50 ([5]; Homo sapiens, SK-OV-3, 48 h): 8 µM
- GI50 [6]: 4 µM
- GI50 [7]: 2 µM
- GI50 ([8]; Homo sapiens, NCI/ADR-RES): 2 µM
- melting point: 194.5 °C
- GI50 [9]: 13 µM
- GI50 ([10]; Homo sapiens): 13 µM

Structure (SMILES): C=C1CCC2[C@]3(C)COC(c4ccccc4)O[C@@H]3CC[C@]2(C)[C@H]1C/C=C1/C(=O)OC[C@H]1O (some centres unmarked) [Example 2, 3,19-Benzylidene andrographolide]
- melting point: 142 to 143 °C

Structure (SMILES): C=C1CC[C@@H]2[C@](C)(COC(C)=O)[C@H](OC(C)=O)CC[C@@]2(C)[C@@H]1C/C=C1/C(=O)OC[C@H]1OC(=O)CNC(C)=O [Example 22, 14-(N-acetyl-glycinyl)-3,19-diacetyl andrographolide]
- GI50 ([2]; 48 h): 20 µM
- GI50 [14]: 9.5 µM
- GI50 ([11]; 48 h): 8 µM
- GI50 [3]: 5 µM
- GI50 ([4]; 48 h): 1.5 µM
- GI50 ([5]; 48 h): 30 µM
- GI50 [8]: 8 µM
- GI50 [10]: 25 µM

Structure (SMILES): C=C1CCC2[C@](C)(CO)[C@H](O)CC[C@]2(C)[C@H]1C/C=C1/C(=O)OC[C@H]1OC(=O)Nc1ccccc1 (some centres unmarked) [Example 9, 14-phenylcarbamoyl andrographolide]
- GI50 [1]: 4 µM
- GI50 ([2]; Homo sapiens, NCI-H522, 48 h): 12 µM
- GI50 ([11]; Homo sapiens, DU-145, 48 h): 6 µM
- GI50 ([3]; Homo sapiens): 2.5 µM
- GI50 ([4]; Homo sapiens, U-251, 48 h): 6.5 µM
- GI50 ([5]; Homo sapiens, SK-OV-3, 48 h): 3 µM
- GI50 [6]: 3 µM
- GI50 ([8]; Homo sapiens, NCI/ADR-RES): 0.4 µM
- GI50 [12]: 5 µM
- melting point: 120 °C
- GI50 [9]: 2.5 µM
- GI50 [13]: 3 µM

Structure (SMILES): C=C1CCC2[C@](C)(CO)[C@H](O)CC[C@]2(C)[C@H]1C/C=C1/C(=O)OC[C@H]1OC(=O)/C=C/c1ccccc1 (some centres unmarked) [Example 11, 14-Cinnamoyl andrographolide]
- melting point: 77 °C

Structure (SMILES): C=C1CCC2[C@](C)(CO)[C@H](O)CC[C@]2(C)[C@H]1C/C=C1/C(=O)OC[C@H]1OC(=O)C(C)(C)C (some centres unmarked) [Example 13, 14-Pivaloyl andrographolide]
- melting point: 172.7 °C

Structure (SMILES): C=C1CCC2[C@](C)(CO)[C@H](O)CC[C@]2(C)[C@H]1C/C=C1/C(=O)OC[C@H]1OC(C)=O (some centres unmarked) [Example 7, 14-acetyl andrographolide]
- melting point: 169 °C

Structure (SMILES): C=C1CC[C@@H]2[C@](C)(COC(C)=O)[C@H](OC(C)=O)CC[C@@]2(C)[C@@H]1C/C=C1/C(=O)OC[C@H]1OC(=O)C(O)C(NC(=O)c1ccccc1)c1ccccc1 (some centres unmarked) [Example 18, 3,19-Diacetyl-14-(2′hydroxy-3′-benzoylamino 3′-phenyl)propionyl andrographolide]
- GI50 ([2]; 48 h): 20 µM
- GI50 [14]: 3 µM
- GI50 ([11]; 48 h): 3 µM
- GI50 [3]: 5 µM
- GI50 ([4]; 48 h): 8 µM
- GI50 ([5]; 48 h): 4 µM
- GI50 [8]: 8 µM
- GI50 [10]: 10 µM

Structure (SMILES): C=C1CCC2[C@](C)(CO)[C@H](O)CC[C@]2(C)[C@H]1C/C=C1/C(=O)OC[C@H]1OC(=O)c1ccccc1 (some centres unmarked) [Example 14, 14-Benzoyl andrographolide]
- GI50 [1]: 4 µM
- GI50 ([2]; Homo sapiens, NCI-H522, 48 h): 7.5 µM
- GI50 ([11]; Homo sapiens, DU-145, 48 h): 6 µM
- GI50 ([3]; Homo sapiens): 3 µM
- GI50 ([4]; Homo sapiens, U-251, 48 h): 1.5 µM
- GI50 ([5]; Homo sapiens, SK-OV-3, 48 h): 3.5 µM
- GI50 [6]: 3 µM
- GI50 ([8]; Homo sapiens, NCI/ADR-RES): 3.5 µM
- GI50 [12]: 5 µM
- melting point: 85.5 to 87 °C
- GI50 [9]: 10 µM
- GI50 [13]: 2 µM

Structure (SMILES): C=C1CCC2[C@](C)(COC(=O)CC)[C@H](OC(=O)CC)CC[C@]2(C)[C@H]1C/C=C1/C(=O)OC[C@H]1OC(=O)CNC(=O)OC(C)(C)C (some centres unmarked) [Example 20, 14-(N-Boc-glycinyl)-3,19-dipropionyl andrographolide]
- melting point: 65 °C

Structure (SMILES): C=C1CCC2[C@]3(C)COC(C)(C)O[C@@H]3CC[C@]2(C)[C@H]1C/C=C1/C(=O)OC[C@H]1OC(=O)[C@H](CCSC)NC(=O)OC(C)(C)C (some centres unmarked) [Example 4, 3,19-isopropylidene-14-(N-Boc-methionyl)andrographolide]
- melting point: 70 °C
